pEC50, pIC50, pKi: −log10 of the molar value.
Tests used:
[1] = target: T1, Transient receptor potential cation channel subfamily V member 1 (Rattus norvegicus, UniProt O35433); test: Binding affinity towards rat vanilloid receptor subtype 1 expressed in CHO cells by [3H]RTX displacement.; type: cell-based
[2] = target: Transient receptor potential cation channel subfamily V member 1 (Rattus norvegicus) (UniProt O35433); test: Agonist-induced 45 [Ca2+] influx relative to 300 nM capsaicin in vanilloid receptor expressing CHO cells
Transient receptor potential cation channel subfamily V member 1 (Rattus norvegicus), sequence (O35433 whole entry): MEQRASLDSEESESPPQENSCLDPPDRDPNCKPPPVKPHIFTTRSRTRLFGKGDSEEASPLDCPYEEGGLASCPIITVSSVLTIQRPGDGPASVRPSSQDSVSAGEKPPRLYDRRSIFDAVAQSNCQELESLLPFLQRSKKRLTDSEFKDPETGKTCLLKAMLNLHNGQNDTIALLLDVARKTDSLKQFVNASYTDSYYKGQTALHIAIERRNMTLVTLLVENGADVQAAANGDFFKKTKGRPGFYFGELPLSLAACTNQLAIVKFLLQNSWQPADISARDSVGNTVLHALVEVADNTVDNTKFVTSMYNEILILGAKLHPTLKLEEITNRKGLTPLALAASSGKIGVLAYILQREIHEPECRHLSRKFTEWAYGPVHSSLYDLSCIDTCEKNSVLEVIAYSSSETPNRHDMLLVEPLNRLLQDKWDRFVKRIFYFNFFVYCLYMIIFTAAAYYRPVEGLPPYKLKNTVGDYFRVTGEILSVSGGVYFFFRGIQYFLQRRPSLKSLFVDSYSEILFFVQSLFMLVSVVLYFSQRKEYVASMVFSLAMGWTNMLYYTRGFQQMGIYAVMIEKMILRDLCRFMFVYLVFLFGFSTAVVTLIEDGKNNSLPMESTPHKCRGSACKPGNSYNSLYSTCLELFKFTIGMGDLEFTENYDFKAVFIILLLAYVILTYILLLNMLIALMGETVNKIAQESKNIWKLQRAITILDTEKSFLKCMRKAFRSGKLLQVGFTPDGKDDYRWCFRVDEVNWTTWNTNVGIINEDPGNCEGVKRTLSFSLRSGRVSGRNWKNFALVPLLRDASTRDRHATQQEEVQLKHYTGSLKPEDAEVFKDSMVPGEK

[3] = target: Transient receptor potential cation channel subfamily V member 1 (Rattus norvegicus) (UniProt O35433); test: Inhibition of […] nM capsaicin-induced 45 [Ca2+] influx in vanilloid receptor expressing CHO cells; type: functional, cell-based
[4] = target: T1, Transient receptor potential cation channel subfamily V member 1; test: Agonist effect on 45 [Ca2+] influx in vanilloid receptor expressing CHO cells relative to maximal capsaicin (300 nM) response, weak effect at 30 µM; conditions: for EC50: cho
[5] = target: T1, Transient receptor potential cation channel subfamily V member 1; test: In vitro antagonist effect against 50 nM capsaicin-induced 45 [Ca2+] influx in vanilloid receptor expressing CHO cells; type: functional, cell-based
[6] = target: Transient receptor potential cation channel subfamily V member 1 (Rattus norvegicus) (UniProt O35433); test: Inhibition of […] nM capsaicin-induced 45 [Ca2+] uptake in vanilloid receptor expressing CHO cells; type: functional, cell-based
[7] = target: T1, Transient receptor potential cation channel subfamily V member 1; test: Agonist effect on 45 [Ca2+] influx in vanilloid receptor expressing CHO cells relative to maximal capsaicin (300 nM) response (ineffective); type: functional, cell-based
[8] = target: T1, Transient receptor potential cation channel subfamily V member 1; test: In vitro antagonist effect against 50 nM capsaicin-induced 45 [Ca2+] influx in vanilloid receptor expressing CHO cells (ineffective); type: functional, cell-based
[9] = target: T1, Transient receptor potential cation channel subfamily V member 1; test: Agonist effect on 45 [Ca2+] influx in vanilloid receptor expressing CHO cells relative to maximal capsaicin (300 nM) response; type: functional, cell-based

T1 sequence (O35433 whole entry): as above

| SMILES | pKi [1] | agonist efficacy [2] | EC50 [4] | pIC50 [5] | IC50 [8] | further results |
| --- | --- | --- | --- | --- | --- | --- |
| Cc1ccc(CC(COC(=O)C(C)(C)C)CN(O)/C(S)=N/Cc2ccc(NS(C)(=O)=O)cc2)cc1C (centres undefined) |  | 12% | Partially active |  |  |  |
| Cc1ccc(CC(CNC(=S)OCc2ccc(NS(C)(=O)=O)cc2)COC(=O)C(C)(C)C)cc1C (centres undefined) | 6.47 | 11% | Partially active | 6.36 |  | inhibition [6]: 79% |
| Cc1ccc(CC(COC(=O)Cc2ccc(NS(C)(=O)=O)cc2)COC(=O)C(C)(C)C)cc1C (centres undefined) | 5.70 |  |  | 5.44 |  | EC50 [7]: Not Active |
| Cc1ccc(CC(CN/C(S)=N/Cc2ccc(NS(C)(=O)=O)cc2)COC(=O)C(C)(C)C)cc1C (centres undefined) |  |  | Partially active | 7.17 |  |  |
| Cc1ccc(CC(COC(=O)C(C)(C)C)CN(O)/C(S)=N/Cc2ccc(NS(C)(=O)=O)cc2Cl)cc1C (centres undefined) | 6.66 |  |  | 6.12 |  | EC50 [7]: Not Active |
| Cc1ccc(CC(CNC(=S)N(O)Cc2ccc(NS(C)(=O)=O)cc2)COC(=O)C(C)(C)C)cc1C (centres undefined) |  | 12% | Partially active | 6.48 |  |  |
| COc1cc(C/N=C(\S)NCC(COC(=O)C(C)(C)C)Cc2ccc(C)c(C)c2)ccc1NS(C)(=O)=O (centres undefined) |  |  |  |  | Not Active |  |
| Cc1ccc(CC(CNC(=S)N(O)Cc2ccc(NS(C)(=O)=O)c(F)c2)COC(=O)C(C)(C)C)cc1C (centres undefined) |  |  | Partially active |  | Not Active |  |
| Cc1ccc(CC(COC(=O)C(C)(C)C)CN(O)/C(S)=N/Cc2ccc(NS(C)(=O)=O)c(F)c2)cc1C (centres undefined) |  |  |  |  |  | EC50 [7]: Not Active |
| COc1cc(CO/C(S)=N/CC(COC(=O)C(C)(C)C)Cc2ccc(C)c(C)c2)ccc1NS(C)(=O)=O (centres undefined) | 6.70 |  |  |  | Not Active | pEC50 ([4]; read-out: EC50): 6.43 |
| COc1cc(C/N=C(\S)N(O)CC(COC(=O)C(C)(C)C)Cc2ccc(C)c(C)c2)ccc1NS(C)(=O)=O (centres undefined) | 6.40 |  |  |  | Not Active | pEC50 [9]: 6.09 |
| Cc1ccc(CC(COC(=O)C(C)(C)C)CN(O)/C(S)=N/Cc2ccc(NS(C)(=O)=O)cc2F)cc1C (centres undefined) |  |  | Partially active |  | Not Active |  |

Continued, in another order:

| pKi [1] | agonist efficacy [2] | EC50 [4] | pIC50 [5] | IC50 [8] | SMILES | further results |
| --- | --- | --- | --- | --- | --- | --- |
| 7.13 | 7% | Partially active | 6.36 |  | CC(C)(C)C(=O)OCC(CNC(=O)Cc1ccc(NS(C)(=O)=O)c(F)c1)Cc1ccc(C(C)(C)C)cc1 (centres undefined) | inhibition [3]: 56% |
|  | 10% | Partially active |  |  | Cc1ccc(CC(CNC(=O)Cc2ccc(NS(C)(=O)=O)c(F)c2)COC(=O)C(C)(C)C)cc1C (centres undefined) | inhibition [3]: 65% |
| 6.30 | 5.6% | Partially active | 6.34 |  | Cc1ccc(CC(CNC(=O)Cc2ccc(NS(C)(=O)=O)cc2)COC(=O)C(C)(C)C)cc1C (centres undefined) |  |
| 6.39 | 13% | Partially active | 5.00 |  | CC(C)(C)C(=O)OCC(Cc1ccc(C(C)(C)C)cc1)CN(O)/C(S)=N/Cc1ccc(NS(C)(=O)=O)c(F)c1 (centres undefined) |  |
| 7.65 | 5% | Partially active | 7.28 |  | CC(C)(C)C(=O)OCC(CNC(=S)NCc1ccc(NS(C)(=O)=O)c(F)c1)Cc1ccc(C(C)(C)C)cc1 (centres undefined) |  |
| 6.68 | 7.5% | Partially active | 6.77 |  | Cc1ccc(CC(CNC(=S)OCc2ccc(NS(C)(=O)=O)c(F)c2)COC(=O)C(C)(C)C)cc1C (centres undefined) |  |
| 6.37 |  |  |  | Not Active | COc1cc(CC(=O)NCC(COC(=O)C(C)(C)C)Cc2ccc(C)c(C)c2)ccc1NS(C)(=O)=O (centres undefined) | pEC50 [9]: 6.61 |
|  |  |  | 8.11 |  | Cc1ccc(CC(CNC(=S)NCc2ccc(NS(C)(=O)=O)c(F)c2)COC(=O)C(C)(C)C)cc1C (centres undefined) | EC50 [7]: Not Active |

Source: ChEMBL document CHEMBL1149228, “Analysis of structure-activity relationships for the 'B-region' of N-(3-acyloxy-2-benzylpropyl)-N(')-[4-(methylsulfonylamino)benzyl]thiourea analogues as vanilloid receptor antagonists: discovery of an N-hydroxythiourea analogue with potent analgesic activity” (Bioorg Med Chem Lett, 2004)
